In patent US10723741B1, “DNA polymerase IIIC inhibitors and use thereof” (Acurx Pharmaceuticals, LLC, priority 2018, dated 2020):
≈ marks a conversion by molar mass, not a printed value.

Experiments:
Assay type in all cases: cell-based
[1] = tested on: Bacillus subtilis ATCC 6633; assay: Broth microdilution MIC, B. subtilis ATCC 6633; conditions: ATCC6633, broth microdilution, 37° C., 20 hours, read-out: MIC B. subtilis ATCC 6633
Outline: (§1)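 Broth microdilution in strain-specific test medium with ~5.0×10^5 cfu/ml inoculum, 1% DMSO and two-fold compound dilutions from 64 to 0.0625 μg/ml. Plates were held 20 hours at 37° C in ambient air. S. pneumoniae colonies were grown beforehand on blood agar in 5% CO2.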

[2] = tested on: Streptococcus pneumoniae ATCC 49619; assay: Broth microdilution MIC, S. pneumoniae ATCC 49619; conditions: ATCC49619, broth microdilution, 37° C., 20 hours, read-out: MIC S. pneumoniae ATCC 49619
Outline: as §1

[3] = tested on: Staphylococcus aureus ATCC 29213 (MSSA); assay: Broth microdilution MIC, S. aureus ATCC 29213 (MSSA); conditions: broth microdilution, 37° C., 20 hours, read-out: MIC S. aureus ATCC 29213 (MSSA)
Outline: as §1

[4] = tested on: Enterococcus faecium ATCC 700221 (VRE); assay: Broth microdilution MIC, E. faecium ATCC 700221 (VRE); conditions: Enterococcus faecium; broth microdilution, 37° C., 20 hours; read-out: MIC E. faecium ATCC 700221 (VRE)
Outline: as §1

[5] = tested on: Escherichia coli ATCC 25922; assay: Broth microdilution MIC, E. coli ATCC 25922 (MHIIB w & w/o 4 mM EDTA); conditions: broth microdilution, 37° C., 20 hours; for MIC: Escherichia coli, ATCC25922, without EDTA, read-out: MIC E. coli ATCC 25922; for MIC E. coli ATCC 25922 + 4 mM EDTA: with 4 mM EDTA
Outline: as §1

[6] = tested on: Staphylococcus aureus NRS384 (MRSA); assay: Broth microdilution MIC, S. aureus NRS384 (MRSA); conditions: Staphylococcus aureus; broth microdilution, 37° C., 20 hours; read-out: MIC NRS 384 (MRSA)
Outline: as §1

[7] = tested on: Enterococcus faecalis ATCC 29212; assay: Broth microdilution MIC, E. faecalis ATCC 29212; conditions: ATCC29212, broth microdilution, 37° C., 20 hours, read-out: MIC E. faecalis ATCC 29212
Outline: as §1

| Structure (SMILES) | MIC [1] | MIC [2] | MIC [3] | MIC [4] | MIC [5] | MIC E. coli ATCC 25922 + 4 mM EDTA [5] | MIC [6] | MIC [7] |
| --- | --- | --- | --- | --- | --- | --- | --- | --- |
| Cl.Cl.O=c1[nH]c(NCc2ccc(Cl)c(Cl)c2)nc2cnn(C3CCN(CC4CCCNC4)CC3)c12 (stereo not shown) [Compound 251, 5-((3,4-dichlorobenzyl)amino)-1-(1-(piperidin-3-ylmethyl)piperidin-4-yl)-1H-pyrazolo[4,3-d]pyrimidin-7(6H)-one dihydrochloride] | 4 mg/L | 8 mg/L | 16 mg/L | 16 mg/L | > 64 mg/L | 64 mg/L | 16 mg/L | 16 mg/L |
| O=C(c1cocn1)N1CCC(n2ncc3nc(NCc4ccc(Cl)c(Cl)c4)[nH]c(=O)c32)CC1 [Compound 253, 5-[(3,4-Dichlorophenyl)methylamino]-1-[1-(oxazole-4-carbonyl)-4-piperidyl]-6H-pyrazolo[4,3-d]pyrimidin-7-one] | 1 mg/L (≈ 2.05 µM) | 2 mg/L (≈ 4.1 µM) | 2 mg/L (≈ 4.1 µM) | 2 mg/L (≈ 4.1 µM) | > 64 mg/L | >64 mg/L | 2 mg/L (≈ 4.1 µM) | 4 mg/L (≈ 8.19 µM) |
| O=C(c1nccs1)N1CCC(n2ncc3nc(NCc4ccc(Cl)c(Cl)c4)[nH]c(=O)c32)CC1 [Compound 254, 5-[(3,4-Dichlorophenyl)methylamino]-1-[1-(thiazole-2-carbonyl)-4-piperidyl]-6H-pyrazolo[4,3-d]pyrimidin-7-one] | 1 mg/L (≈ 1.98 µM) | 4 mg/L (≈ 7.93 µM) | 2 mg/L (≈ 3.97 µM) | 2 mg/L (≈ 3.97 µM) | > 64 mg/L | >64 mg/L | 2 mg/L (≈ 3.97 µM) | 4 mg/L (≈ 7.93 µM) |
| Cl.O=C(c1ccccn1)N1CCC(n2ncc3nc(NCc4ccc(Cl)c(Cl)c4)[nH]c(=O)c32)CC1 [Compound 255, 5-((3,4-Dichlorobenzyl)amino)-1-(1-picolinoylpiperidin-4-yl)-1H-pyrazolo[4,3-d]pyrimidin-7(6H)-one hydrochloride] | 2 mg/L | 2 mg/L | 4 mg/L | 2 mg/L | > 64 mg/L | >64 mg/L | 4 mg/L | 4 mg/L |
| Cl.O=C(c1ccccn1)N1CCC(n2ncc3nc(NCc4ccc(Cl)c(Cl)c4)[nH]c(=O)c32)C1 (stereo not shown) [Compound 257, 5-((3,4-Dichlorobenzyl)amino)-1-(1-picolinoylpyrrolidin-3-yl)-1H-pyrazolo[4,3-d]pyrimidin-7(6H)-one] | 2 mg/L | 4 mg/L | 4 mg/L | 4 mg/L | > 64 mg/L | >64 mg/L | 4 mg/L | 8 mg/L |
| Cl.O=C(c1cccnc1)N1CCC(n2ncc3nc(NCc4ccc(Cl)c(Cl)c4)[nH]c(=O)c32)C1 (stereo not shown) [Compound 258, 5-((3,4-Dichlorobenzyl)amino)-1-(1-nicotinoylpyrrolidin-3-yl)-1H-pyrazolo[4,3-d]pyrimidin-7(6H)-one] | 2 mg/L | 4 mg/L | 8 mg/L | 4 mg/L | > 64 mg/L | >64 mg/L | 8 mg/L | 8 mg/L |
| Cl.O=C(c1ccncc1)N1CCC(n2ncc3nc(NCc4ccc(Cl)c(Cl)c4)[nH]c(=O)c32)C1 (stereo not shown) [Compound 259, 5-[(3,4-Dichlorophenyl)methylamino]-1-[1-(pyridine-4-carbonyl)pyrrolidin-3-yl]-6H-pyrazolo[4,3-d]pyrimidin-7-one] | 2 mg/L | 4 mg/L | 8 mg/L | 4 mg/L | > 64 mg/L | >64 mg/L | 8 mg/L | 4 mg/L |
| Cc1cncc(C(=O)N2CCC(n3ncc4nc(NCc5ccc(Cl)c(Cl)c5)[nH]c(=O)c43)CC2)c1.Cl [Compound 261, 5-((3,4-Dichlorobenzyl)amino)-1-(1-(5-methylnicotinoyl)piperidin-4-yl)-1H-pyrazolo[4,3-d]pyrimidin-7(6H)-one hydrochloride] | 1 mg/L | 4 mg/L | 4 mg/L | 2 mg/L | > 64 mg/L | >64 mg/L | 4 mg/L | 4 mg/L |
| Cl.O=C(c1nnc[nH]1)N1CCC(n2ncc3nc(NCc4ccc(Cl)c(Cl)c4)[nH]c(=O)c32)CC1 [Compound 265, 1-(1-(4H-1,2,4-triazole-3-carbonyl)piperidin-4-yl)-5-((3,4-dichlorobenzyl)amino)-1H-pyrazolo[4,3-d]pyrimidin-7(6H)-one hydrochloride] | 4 mg/L | 4 mg/L | 8 mg/L | 4 mg/L | > 64 mg/L | >64 mg/L | 8 mg/L | 4 mg/L |

Further lines, results first:

| MIC [1] | MIC [2] | MIC [3] | MIC [4] | MIC [5] | MIC E. coli ATCC 25922 + 4 mM EDTA [5] | MIC [6] | MIC [7] | Structure (SMILES) |
| --- | --- | --- | --- | --- | --- | --- | --- | --- |
| 1 mg/L | 2 mg/L | 4 mg/L | 2 mg/L | > 64 mg/L | >64 mg/L | 4 mg/L | 4 mg/L | Cl.O=C(c1ccncc1)N1CCC(n2ncc3nc(NCc4ccc(Cl)c(Cl)c4)[nH]c(=O)c32)CC1 [Compound 252, 5-((3,4-dichlorobenzyl)amino)-1-(1-isonicotinoylpiperidin-4-yl)-1H-pyrazolo[4,3-d]pyrimidin-7(6H)-one hydrochloride] |
| 2 mg/L | 4 mg/L | 8 mg/L | 2 mg/L | > 64 mg/L | >64 mg/L | 4 mg/L | 4 mg/L | Cl.O=C(c1cccnc1)N1CCC(n2ncc3nc(NCc4ccc(Cl)c(Cl)c4)[nH]c(=O)c32)CC1 [Compound 256, 5-((3,4-Dichlorobenzyl)amino)-1-(1-nicotinoylpiperidin-4-yl)-1H-pyrazolo[4,3-d]pyrimidin-7(6H)-one hydrochloride] |
| 1 mg/L | 4 mg/L | 4 mg/L | 2 mg/L | > 64 mg/L | >64 mg/L | 4 mg/L | 4 mg/L | COc1cncc(C(=O)N2CCC(n3ncc4nc(NCc5ccc(Cl)c(Cl)c5)[nH]c(=O)c43)CC2)c1.Cl [Compound 260, 5-((3,4-Dichlorobenzyl)amino)-1-(1-(5-methoxynicotinoyl)piperidin-4-yl)-1H-pyrazolo[4,3-d]pyrimidin-7(6H)-one hydrochloride] |
| 1 mg/L | 4 mg/L | 4 mg/L | 2 mg/L | > 64 mg/L | >64 mg/L | 4 mg/L | 4 mg/L | Cc1cccnc1C(=O)N1CCC(n2ncc3nc(NCc4ccc(Cl)c(Cl)c4)[nH]c(=O)c32)CC1.Cl [Compound 262, 5-((3,4-Dichlorobenzyl)amino)-1-(1-(3-methylpicolinoyl)piperidin-4-yl)-1H-pyrazolo[4,3-d]pyrimidin-7(6H)-one hydrochloride] |
| 1 mg/L | 2 mg/L | 4 mg/L | 1 mg/L | > 64 mg/L | >64 mg/L | 2 mg/L | 4 mg/L | COc1ccnc(C(=O)N2CCC(n3ncc4nc(NCc5ccc(Cl)c(Cl)c5)[nH]c(=O)c43)CC2)c1.Cl [Compound 263, 5-((3,4-dichlorobenzyl)amino)-1-(1-(4-methoxypicolinoyl)piperidin-4-yl)-1H-pyrazolo[4,3-d]pyrimidin-7(6H)-one hydrochloride] |
| 1 mg/L | 4 mg/L | 4 mg/L | 1 mg/L | > 64 mg/L | >64 mg/L | 2 mg/L | 4 mg/L | Cc1ccnc(C(=O)N2CCC(n3ncc4nc(NCc5ccc(Cl)c(Cl)c5)[nH]c(=O)c43)CC2)c1.Cl [Compound 264, 5-((3,4-Dichlorobenzyl)amino)-1-(1-(4-methylpicolinoyl)piperidin-4-yl)-1H-pyrazolo[4,3-d]pyrimidin-7(6H)-one hydrochloride] |
| 2 mg/L | 4 mg/L | 8 mg/L | 2 mg/L | > 64 mg/L | >64 mg/L | 8 mg/L | 4 mg/L | COc1ccncc1C(=O)N1CCC(n2ncc3nc(NCc4ccc(Cl)c(Cl)c4)[nH]c(=O)c32)CC1.Cl [Compound 266, 5-((3,4-Dichlorobenzyl)amino)-1-(1-(4-methoxynicotinoyl)piperidin-4-yl)-1H-pyrazolo[4,3-d]pyrimidin-7(6H)-one hydrochloride] |
| 1 mg/L | 4 mg/L | 4 mg/L | 2 mg/L | > 64 mg/L | >64 mg/L | 4 mg/L | 4 mg/L | Cc1ccncc1C(=O)N1CCC(n2ncc3nc(NCc4ccc(Cl)c(Cl)c4)[nH]c(=O)c32)CC1.Cl [Compound 267, 5-((3,4-Dichlorobenzyl)amino)-1-(1-(4-methylnicotinoyl)piperidin-4-yl)-1H-pyrazolo[4,3-d]pyrimidin-7(6H)-one hydrochloride] |
